Holding throughout (assay type): in vivo, Malus silvestris L. var. domestica Borkh.
The test system of data set [1] is Rome Beauty apple-bearing cut-limbs. Nature of the data set: Long-term storage experiment with 1-MCP treatment. To be noted: 1 ppm 1-MCP at 1° C. for twenty-four hours. As to the method:
(§1) For Rome Beauty apples only, a long term storage experiment and an ascorbic acid dip solution/plant regulator spray experiment were also carried out. For the long-term storage experiment, sixty cut-limbs were harvested, packed in the perforated bags, and stored at 1° C. (nearly the freezing temperature of water). Half of the cut-limbs were treated with 0.0001% by volume (1 ppm) of 1-methylcyclopropene (1-MCP) at 1° C. for twenty-four hours before storage. […] It is possible, however, that MCP treatment would be beneficial in other applications, e.g. with different fruit types, varieties, cultivars, etc.

For data set [2], the system named is Rome Beauty apples cut-limbs. Description: Ascorbic acid dipping/abscisic acid spraying experiment. To be noted: packaged. As for the experimental part: as §1
(§2) The cut-limbs without 1-MCP treatment, after twenty-three and forty-two days of cold storage, were then transferred to room temperature (20° C.), and treated with the following five treatments: bagging, water dipping, bagging plus dipping, bagging […] the control. For the ascorbic acid dipping/abscisic acid spraying experiment, the following four treatments were carried out: ascorbic acid (0.1%) dipping only, coating with an abscission-inducing agent (ABA) such as 0.001% by volume (10 ppm) of abscisic acid added only, 0.1% by volume of ascorbic acid dipping plus coating with ABA added, and the control only. All of the treatments included dipping or coating (or both) and packaging in the perforated polyethylene bags.

Data set [3] concerns Rome Beauty apples cut-limbs. Description: Ascorbic acid treatment, visual quality during storage. To be noted: for Fruit visual quality / Leaves Symptom / Leaves visual quality: Rome Beauty apples, ASA 0.1%, 30 mL, packaged, 20° C. As to the method: as §2
(§3) Visual quality of leaves was scored with the widely used scale of 9=excellent, fresh; 7=good; 5=fair, slight discoloration; 3=mild discoloration and dryness; and 1=severe discoloration and dryness. Sensory quality of fruit was scored using a scale of 9=pleasant, fresh; 7=good; 5=bland, faint taste; 3=unpleasant taste; and 1=inedible. For both scales, a score of 5 is generally considered in post-harvest studies to be the threshold level of acceptability.

In data set [4] the test system is cut-limbs of Golden Delicious apple. Nature of the data set: Citric acid immerging, visual quality of cut-limbs. To be noted: 0.5% CA, 30 mL, packaged, 20° C.
Excerpt: as §3

[5] abbreviates: 0.1% ascorbic acid dip solution.
[6] abbreviates: 10 ppm abscisic acid in the edible coatings.

For the molecule `CC1=CC1` [1-MCP, 1-methylcyclopropene], in data set [1] (Rome Beauty cut-limbs), the Fruit appearance entry is “normal appearance” and the “Leaves showing brown-black burn symptoms” value is “approximately 68%”. The “Phytotoxicity to the leaves” value in data set [1] (after four days of storage at 1° C.) is “severe phytotoxicity”.
In the case of `O=C1O[C@H]([C@@H](O)CO)C(O)=C1O` [ASA, ascorbic acid], in data set [2] (setting [5]), the “Shelf-life of the cut-limbs” value is on record as “increased”. The Water loss entry in data set [2] (setting [5]) is “decreased”. Moreover, the Fruit visual quality in data set [3] (day 1), in data set [3] (day 2), in data set [3] (day 3), in data set [3] (day 4), in data set [3] (day 5) and in data set [3] (day 6) was 9.0 a each time. Also, the Fruit visual quality in data set [3] (day 7) was 8.5 a. In addition, the “Leaves Symptom” value in data set [3] (day 1), in data set [3] (day 2), in data set [3] (day 3), in data set [3] (day 4) and in data set [3] (day 5) was “Normal” each time. Besides, the Leaves visual quality is 8.5 a in data set [3] (day 1); 8.6 a in data set [3] (day 2); 8.3 a in data set [3] (day 3); 8.3 a in data set [3] (day 4); 8.4 a in data set [3] (day 5); 8.2 a in data set [3] (day 6). This molecule yielded a Leaves visual quality in data set [3] (day 7) of 8.0 a. The “Color and luster (FIG. 3C)” value in data set [3] (after seven days stored with water dipping and packaging, vs no-acid) was “visibly better color and luster”.
As for `O=C(O)CC(O)(CC(=O)O)C(=O)O` [CA, citric acid], the Fruit visual quality in data set [4] (day 1) is listed as 9.0; in data set [4] (day 2), 9.0; in data set [4] (day 3), 9.0; in data set [4] (day 4), 8.5; in data set [4] (day 5), 8.5; in data set [4] (day 6), 8.5. In data set [4] (day 7), this molecule yielded a Fruit visual quality of 8.5. For the same molecule, the Leaves visual quality turned out to be 8.6 in data set [4] (day 1); 8.4 in data set [4] (day 2); 8.3 in data set [4] (day 3); 7.9 in data set [4] (day 4); 8.4 in data set [4] (day 5); 8.2 in data set [4] (day 6). The Leaves visual quality in data set [4] (day 7) is given as 8.0.
On to `CC1=CC(=O)CC(C)(C)[C@@]1(O)/C=C/C(C)=C\C(=O)O` [abscisic acid], for which, in data set [2] (setting [6]), the “Shelf-life of the cut-limbs” value was “increased” and the Water loss entry was “decreased”.

Source of the values: US20080310991A1, “Perishable-fruit-bearing cut-limb preservation and distribution method, coating and shipping container therefor” (State of Oregon, acting by and through the State Board of …, priority 2007, published 2008).
